Results from patent US20220168230A1, “NANOPARTICLE MEDIATED THERAPY” (Yale University, priority 2019, published 2022).

Experiments:
[1] = in vivo; cited from earlier work
[2] = PET scan of ^11C-glyburide uptake in left and right brain hemispheres of MCAO rats; assay type: in vivo, rat; settings: intravenous injection, FIG. 1B
[3] = in vivo; cited from earlier work; remark: listed apart in the source
MCAO mice = test: Therapeutic benefits in MCAO stroke mice (survival, TTC infarct volume, neurological score); assay type: in vivo; settings: same amount of BA NPs and/or glyburide as in Gly-NPs, i.v. at 0, 24, 48 h, FIG. 6C, D
Text: MCAO models were generated according to Cai, et al. Neurosci Lett 2015, 597, 127-31; Guo, et al. ACS nano 2018, 12 (8), 8723-8732; Han, et al. Nanomedicine 2016, 12 (7), 1833-42; Yu, et al. Advanced Materials 2018, 30, 1705383. Briefly, rats were anesthetized with 5% isoflurane (Aerrane, Baxter, Deerfield, Ill.) in 30% O2/70% N2O using a Tabletop Anesthesia system (Harvard Apparatus, USA). Isoflurane was then maintained at 1.5%. During the procedures, the body temperature of mice was maintained at 37.0±0.5° C. Regional cerebral blood flow (rCBF) was monitored using a laser Doppler flowmeter (AD Instruments Inc.) duration the course of surgery. […]
Mice were given treatment intravenously at 0, 24 and 48 h after surgery. Mice were monitored for survival for 10 days and were euthanized if one of the following criteria was met: (1) the mouse's body weight dropped below 15% of its initial weight, or (2) the mouse became lethargic or sick and unable to feed. […] Three days later, the score of each mouse was assessed by a standard behavioral test and were scored as follows: (1) normal motor function, (2) flexion of torso and contralateral forelimb when animal was lifted by the tail, (3) hemiparalysis resulting in circling to the contralateral side when held by tail on flat surface, but normal posture at rest, (4) leaning to the contralateral side at rest, and (5) no spontaneous motor activity. […]

C[C@@H]1CC[C@H]2[C@@H](C)C(=O)O[C@@H]3O[C@@]4(C)CC[C@@H]1[C@]32OO4 [Artemisinin]
bioavailability [1]: less than 10%

COc1ccc(Cl)cc1C(=O)NCCc1ccc(S(=O)(=O)NC(=O)NC2CCCCC2)cc1 [^11C-glyburide]
^11C-glyburide uptake, ischemic versus contralateral hemisphere [2]: no significant difference

COc1ccc(Cl)cc1C(=O)NCCc1ccc(S(=O)(=O)NC(=O)NC2CCCCC2)cc1 [glyburide]
ability to penetrate the BBB [3]: limited ability to penetrate the BBB | therapeutic benefits compared with Gly-NP treatment (MCAO mice): significantly less efficacy
